Consider 20 compounds from patent US20240415819A1, “MACROCYCLIC COMPOUNDS AS PROTEASOME SUBUNIT BETA TYPE-5 INHIBITORS” (Lead Discovery Center GmbH, priority 2021, published 2024).

Each structure is given as a SMILES string. A value given as a limit tells only on which side of the number the result lay.

The subject of one experiment is hPMBC. The experiment can be described thus: Chymotrypsin-like ProteasomeGlo assay in hPBMC. It is filed as cell-based. Particulars: Homo sapiens; read-out: Pglo hPBMC. Put shortly:
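B cells isolated from human PBMC (buffy coats, density gradient, magnetic isolation). Cells treated with compound for 105 min at 37 °C, with staurosporine and DMSO included. Chymotrypsin-like proteasome activity read by luminescence with Suc-LLVY-Glo substrate to derive IC50.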

Experiment [1] deals with T1, β5 subunit of the human constitutive proteasome (CPS) (Homo sapiens, UniProt P28074).
T1 construct: purchased Boston Biochem E-360
The experiment can be described thus: β5 inhibition assay, human constitutive proteasome (Suc-LLVY-AMC). It is filed as biochemical. Particulars: IC50 class, Suc-LLVY-AMC substrate. The protocol: The enzymatic activity of the β5 subunit of the human constitutive proteasome (CPS) is analyzed. In another assay, which differs from the assay of the human constitutive proteasome only in using the human immunoproteasome (IPS) the enzymatic activity of the β5 subunit of the human immunoproteasome (IPS) is analyzed. […] Inhibition is indicated as IC50 [nM] (“-”=not measured).

For a further experiment, the system named is HT-29 cells. The experiment can be described thus: CellTiter-Glo luminescent cell viability assay with HT-29 cells (72h incubation). It is filed as cell-based, human. The following applies: Homo sapiens, HT-29, HT29 cells, read-out: CTG HT29. Put shortly:
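400 cells per well in DMEM/10% FCS were dosed after 24 h and kept 72 h at 37 °C, 5% CO2. ATP-based luminescence (CellTiter-Glo) normalized to DMSO and 10 μM staurosporine controls; IC50 by dose-response fit.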
A general note: In ATP-based viability assays light output follows the ATP content of the culture.

As for `Cc1ccc2cc1CNC(=O)[C@H](CCc1ccccc1)NC(=O)[C@@H](NC(=O)C1(N)COC1)CC(=O)N1CCCC(CCO2)C1` (stereo partly drawn) [Compound 158, 3-amino-N-((9S,12S)-5^4-methyl-8,11,14-trioxo-9-phenethyl-4-oxa-7,10-diaza-1(3,1)-piperidina-5(1,3)-benzenacyclotetradecaphane-12-yl)oxetane-3-carboxamide], the IC50 (in the experiment on hPMBC; in experiment [1]; with HT-29 cells) was less than 100 nM throughout.

For the compound `Cc1ccc2cc1CNC(=O)[C@H](CCc1ccccc1)NC(=O)[C@@H](NC(=O)C1(C)CCOCC1)CC(=O)N1CCCC(CCO2)C1` (stereo partly drawn) [Compound 288, 4-methyl-N-((9S,12S)-5^4-methyl-8,11,14-trioxo-9-phenethyl-4-oxa-7,10-diaza-1(3,1)-piperidina-5(1,3)-benzenacyclotetradecaphane-12-yl)tetrahydro-2H-pyran-4-carboxamide], the IC50 (in the experiment with hPMBC; in experiment [1]; with HT-29 cells) was less than 100 nM throughout.

Turning to `CC(=O)N[C@H]1CCC(=O)NCCCCOc2ccc(C)c(c2)CNC(=O)[C@H](CCc2ccccc2)NC1=O` [Compound 171, N-((11S,14S)-1^4-methyl-8,12,15-trioxo-14-phenethyl-2-oxa-7,13,16-triaza-1(1,3)-benzenacycloheptadecaphane-11-yl)acetamide], the IC50 in the experiment on hPMBC is less than 100 nM; in experiment [1] it was 100 to 500 nM; with HT-29 cells it was 100 to 500 nM.

`CNCCOCC(=O)N[C@H]1CC(=O)N2CCCC(CCOc3ccc(C)c(c3)CNC(=O)[C@H](CCc3ccccc3)NC1=O)C2` (stereo partly drawn) [Compound 130, N-((9S,12S)-5^4-methyl-8,11,14-trioxo-9-phenethyl-4-oxa-7,10-diaza-1(3,1)-piperidina-5(1,3)-benzenacyclotetradecaphane-12-yl)-2-(2-(methylamino)ethoxy)acetamide]: the IC50 in the experiment with hPMBC was less than 100 nM; in experiment [1], less than 100 nM; with HT-29 cells, 100 to 500 nM.

For the compound `Cc1ccc2cc1CNC(=O)C(c1cnn(C)c1)NC(=O)CCC(=O)N1CCCC(CCO2)C1` (stereo not drawn) [Compound 116, 5^4-methyl-9-(1-methyl-1H-pyrazol-4-yl)-4-oxa-7,10-diaza-1(3,1)-piperidina-5(1,3)-benzenacyclotetradecaphane-8,11,14-trione], the IC50 with hPMBC is 500 to 1000 nM; in experiment [1] it was greater than 5000 nM; with HT-29 cells, 100 to 500 nM.

Turning to `CC(=O)N[C@H]1CC(=O)N2CCCC(CCOc3ccc(C)c(c3)CNC(=O)C(c3cnn(CCCC(=O)O)c3)NC1=O)C2` (stereo partly drawn) [Compound 568, 4-(4-((12S)-12-acetamido-5^4-methyl-8,11,14-trioxo-4-oxa-7,10-diaza-1(3,1)-piperidina-5(1,3)-benzenacyclotetradecaphane-9-yl)-1H-pyrazol-1-yl)butanoic acid], the IC50 is less than 100 nM in the experiment with hPMBC, less than 100 nM in experiment [1] and 100 to 500 nM with HT-29 cells.

Consider `COc1ccccc1CC(=O)N[C@H]1CC(=O)N2CCCC(CCOc3ccc(C)c(c3)CNC(=O)[C@H](CCc3ccccc3)NC1=O)C2` (stereo partly drawn) [Compound 84, 2-(2-methoxyphenyl)-N-((9S,12S)-5^4-methyl-8,11,14-trioxo-9-phenethyl-4-oxa-7,10-diaza-1(3,1)-piperidina-5(1,3)-benzenacyclotetradecaphane-12-yl)acetamide], for which the IC50 (in the experiment on hPMBC; in experiment [1]; with HT-29 cells) was less than 100 nM throughout.

For the compound `Cc1ccc2cc1CNC(=O)[C@@H](CCc1ccccc1)NC(=O)[C@@H](NC(=O)OCc1ccccc1)CC(=O)N1CCC[C@H](CCO2)C1` [Compound 289, benzyl ((13R,9R,12S)-5^4-methyl-8,11,14-trioxo-9-phenethyl-4-oxa-7,10-diaza-1(3,1)-piperidina-5(1,3)-benzenacyclotetradecaphane-12-yl)carbamate], the results for the IC50 (in the experiment with hPMBC; in experiment [1]; in the experiment with HT-29 cells) were 500 to 1000 nM, 100 to 500 nM and 100 to 500 nM, respectively.

Regarding `Cc1ccc2cc1CNC(=O)[C@H](CCc1ccccc1)NC(=O)[C@@H](NC(=O)c1n[nH]c3ccccc13)CC(=O)N1CCCC(CCO2)C1` (stereo partly drawn) [Compound 60, N-((9S,12S)-5^4-methyl-8,11,14-trioxo-9-phenethyl-4-oxa-7,10-diaza-1(3,1)-piperidina-5(1,3)-benzenacyclotetradecaphane-12-yl)-1H-indazole-3-carboxamide], the IC50 with hPMBC is 100 to 500 nM; in experiment [1], less than 100 nM; in the experiment on HT-29 cells, less than 100 nM.

On to `Cc1ccc2cc1CNC(=O)[C@H](CCc1ccccc1)NC(=O)[C@@H](NC(=O)C1CC(F)(F)CN1)CC(=O)N1CCCC(CCO2)C1` (stereo partly drawn) [Compound 135, (2S)-4,4-difluoro-N-((9S,12S)-5^4-methyl-8,11,14-trioxo-9-phenethyl-4-oxa-7,10-diaza-1(3,1)-piperidina-5(1,3)-benzenacyclotetradecaphane-12-yl)pyrrolidine-2-carboxamide], for which the IC50 (in the experiment on hPMBC; in experiment [1]; in the experiment on HT-29 cells) was less than 100 nM in each case.

On to `Cc1ccc2cc1CNC(=O)[C@H](CCc1ccccc1)NC(=O)[C@@H](NC(=O)OCc1ccccc1)CCC(=O)N1CCCC(CCO2)C1` (stereo partly drawn) [Compound 199, benzyl ((9S,12S)-5^4-methyl-8,11,15-trioxo-9-phenethyl-4-oxa-7,10-diaza-1(3,1)-piperidina-5(1,3)-benzenacyclopentadecaphane-12-yl)carbamate], for which the IC50 (with hPMBC; in experiment [1]; in the experiment on HT-29 cells) was less than 100 nM in each case.

Turning to `CC(=O)N[C@H]1CCC(=O)N2CCOC(CCOc3ccc(C)c(c3)CNC(=O)[C@H](CCc3ccccc3)NC1=O)C2` (stereo partly drawn) [Compound 143, N-((9S,12S)-5^4-methyl-8,11,15-trioxo-9-phenethyl-4-oxa-7,10-diaza-1(2,4)-morpholina-5(1,3)-benzenacyclopentadecaphane-12-yl)acetamide], the IC50 is less than 100 nM in the experiment on hPMBC, less than 100 nM in experiment [1] and 100 to 500 nM with HT-29 cells.

With `Cc1ccc2cc1CNC(=O)[C@H](CCc1ccccc1)NC(=O)[C@@H](NC(=O)[C@H](C)c1ccccc1)CC(=O)N1CCCC(CCO2)C1` (stereo partly drawn) [Compound 80, (2R)-N-((9S,12S)-5^4-methyl-8,11,14-trioxo-9-phenethyl-4-oxa-7,10-diaza-1(3,1)-piperidina-5(1,3)-benzenacyclotetradecaphane-12-yl)-2-phenylpropanamide], the IC50 (in the experiment on hPMBC; in experiment [1]; in the experiment on HT-29 cells) was less than 100 nM in each case.

For the compound `COc1cccc(CC(=O)N[C@H]2CC(=O)N3CCCC(CCOc4ccc(C)c(c4)CNC(=O)[C@H](CCc4ccccc4)NC2=O)C3)c1` (stereo partly drawn) [Compound 85, 2-(3-methoxyphenyl)-N-((9S,12S)-5^4-methyl-8,11,14-trioxo-9-phenethyl-4-oxa-7,10-diaza-1(3,1)-piperidina-5(1,3)-benzenacyclotetradecaphane-12-yl)acetamide], the IC50 (in the experiment on hPMBC; in experiment [1]; in the experiment with HT-29 cells) was less than 100 nM in each case.

As for `CC(=O)N[C@H]1CC(=O)N2CCCC(CCOc3ccc(C)c(c3)CNC(=O)C(CCc3cnccn3)NC1=O)C2` (stereo partly drawn) [Compound 564, N-((12S)-5^4-methyl-8,11,14-trioxo-9-(2-(pyrazin-2-yl)ethyl)-4-oxa-7,10-diaza-1(3,1)-piperidina-5(1,3)-benzenacyclotetradecaphane-12-yl)acetamide], the IC50 in the experiment on hPMBC and in the experiment with HT-29 cells was less than 100 nM throughout.

In the case of `Cc1ccc2cc1CNC(=O)[C@H](CCc1ccccc1)NC(=O)CCC(=O)N1CCCC(CCO2)C1` (stereo partly drawn) [Compound 13, (9S)-5^4-methyl-9-phenethyl-4-oxa-7,10-diaza-1(3,1)-piperidina-5(1,3)-benzenacyclotetradecaphane-8,11,14-trione], the results for the IC50 (in experiment [1]; in the experiment on HT-29 cells) were less than 100 nM and 500 to 1000 nM, respectively.

Regarding `Cc1ccc2cc1CNC(=O)C(CCc1cccnc1)NC(=O)CCC(=O)N1CCCC(CCO2)C1` (stereo not drawn) [Compound 51, 5^4-methyl-9-(2-(pyridin-3-yl)ethyl)-4-oxa-7,10-diaza-1(3,1)-piperidina-5(1,3)-benzenacyclotetradecaphane-8,11,14-trione], the IC50 in experiment [1] was less than 100 nM; in the experiment with HT-29 cells, 1000 to 5000 nM.

On to `Cc1ccc2cc1CNC(=O)[C@H](CCc1ccccc1)NC(=O)[C@@H](NC(=O)c1ccccn1)CC(=O)N1CCCC(CCO2)C1` (stereo partly drawn) [Compound 40, N-((9S,12S)-5^4-methyl-8,11,14-trioxo-9-phenethyl-4-oxa-7,10-diaza-1(3,1)-piperidina-5(1,3)-benzenacyclotetradecaphane-12-yl)picolinamide], for which the IC50 (in experiment [1]; in the experiment on HT-29 cells) was less than 100 nM in each case.

Turning to `CCOC(=O)N[C@H]1CC(=O)N2CCCC(CCOc3ccc(C)c(c3)CNC(=O)[C@H](CCc3ccccc3)NC1=O)C2` (stereo partly drawn) [Compound 39, ethyl ((9S,12S)-5^4-methyl-8,11,14-trioxo-9-phenethyl-4-oxa-7,10-diaza-1(3,1)-piperidina-5(1,3)-benzenacyclotetradecaphane-12-yl)carbamate], the IC50 (in experiment [1]; in the experiment with HT-29 cells) was less than 100 nM each time.

For `Cc1ccc2cc1CNC(=O)[C@H](C)NC(=O)CCC(=O)N1CCCC(CCO2)C1` (stereo partly drawn) [Compound 78, (9S)-5^4,9-dimethyl-4-oxa-7,10-diaza-1(3,1)-piperidina-5(1,3)-benzenacyclotetradecaphane-8,11,14-trione], the IC50 fell in the range of 500 to 1000 nM with hPMBC and 1000 to 5000 nM in experiment [1].
